As a reminder, the IC50 is the concentration that inhibits the measured activity by half. One may read the viability, T/C as the ratio of treated to control.

Values joined by “and” are separate entries in the source; they are usually repeats but may differ in a detail not shown here. Identical values can stand only once.

In this test the test system is SYO-1 tumor spheroids, viability % test/control. Briefly: Anticancer human tumor SYO-1 cell line growth inhibition.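 For all read-outs here: spheroids exposed to agents for 7 days before viability read.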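 For viability, T/C: 100% = DMSO vehicle control.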 As to conditions: spheroids with HUVEC and MSC; for viability, T/C: stronger effect = lower value. Summed up: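 Complex tumor spheroids combined malignant cells with endothelial cells and mesenchymal stem cells. DNA-damaging drugs and DNA repair inhibitors were tested alone and in combination, at half-log dilutions down from clinical Cmax (top 10 microM if Cmax unknown), 0.25% DMSO final.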

With `CC1COCCN1c1cc(-c2ccnn2C)c2ccnc(-c3ccn[nH]3)c2n1` (centres undefined) + Cn1nnc2c(C(N)=O)ncn2c1=O, the IC50 reads like this: (curve of first compound, second compound 1 µM) less than 31.6 nM; (curve of first compound, second compound 3.16 µM) less than 31.6 nM; (curve of first compound, second compound 10 µM) less than 31.6 nM; (curve of first compound, second compound 31.6 µM) less than 31.6 nM; (curve of first compound, second compound 100 µM) less than 31.6 nM. Besides, the viability, T/C (second compound 1 µM, first compound 0.0316 µM) is 41.1%; the viability, T/C (second compound 1 µM, first compound 0.1 µM) is 5.35%; the viability, T/C (second compound 1 µM, first compound 0.316 µM) is 2.75%; the viability, T/C (second compound 1 µM, first compound 1 µM) was 1.62%; the viability, T/C (second compound 1 µM, first compound 3.16 µM) is 0.73%; the viability, T/C (second compound 1 µM, first compound 10 µM) is 0.7%. Moreover, the viability, T/C (second compound 3.16 µM, first compound 0.0316 µM) was 38.4%; the viability, T/C (second compound 3.16 µM, first compound 0.1 µM) was 4.75%; the viability, T/C (second compound 3.16 µM, first compound 0.316 µM) is 3.22%; the viability, T/C (second compound 3.16 µM, first compound 1 µM) was 1.73%; the viability, T/C (second compound 3.16 µM, first compound 3.16 µM) is 7.91%; the viability, T/C (second compound 3.16 µM, first compound 10 µM) was 20%. Further, the viability, T/C reads like this: (second compound 10 µM, first compound 0.0316 µM) 20.3%; (second compound 10 µM, first compound 0.1 µM) 3.73%; (second compound 10 µM, first compound 0.316 µM) 2.69%; (second compound 10 µM, first compound 1 µM) 1.48%; (second compound 10 µM, first compound 3.16 µM) 5.25%; (second compound 10 µM, first compound 10 µM) 21.1%. Moreover, the viability, T/C (second compound 31.6 µM, first compound 0.0316 µM) was 11.1%; the viability, T/C (second compound 31.6 µM, first compound 0.1 µM) is 10.2%; the viability, T/C (second compound 31.6 µM, first compound 0.316 µM) was 2.45%; the viability, T/C (second compound 31.6 µM, first compound 1 µM) was 1.18%; the viability, T/C (second compound 31.6 µM, first compound 3.16 µM) is 7.18%; the viability, T/C (second compound 31.6 µM, first compound 10 µM) is 6.71%. Moreover, the viability, T/C was 2.97% (second compound 100 µM, first compound 0.0316 µM); 2.88% (second compound 100 µM, first compound 0.1 µM); 1.91% (second compound 100 µM, first compound 0.316 µM); 1.24% (second compound 100 µM, first compound 1 µM); 0.77% (second compound 100 µM, first compound 3.16 µM); 0.75% (second compound 100 µM, first compound 10 µM).
In the case of `Cn1ncnc1[C@H]1c2n[nH]c(=O)c3cc(F)cc(c23)N[C@@H]1c1ccc(F)cc1` + CC[C@@]1(O)C(=O)OCc2c1cc1n(c2=O)Cc2cc3c(CN(C)C)c(O)ccc3nc2-1, the half-maximal inhibitory concentration (IC50) was less than 9.49 nM (curve of first compound, second compound 0.003 µM); less than 9.49 nM (curve of first compound, second compound 0.00949 µM); less than 9.49 nM (curve of first compound, second compound 0.03 µM); less than 9.49 nM (curve of first compound, second compound 0.0949 µM); less than 9.49 nM (curve of first compound, second compound 0.3 µM). The viability, T/C reads like this: (second compound 0.003 µM, first compound 0.00949 µM) 3.29%; (second compound 0.003 µM, first compound 0.03 µM) 2.24%; (second compound 0.003 µM, first compound 0.0949 µM) 1.89%; (second compound 0.003 µM, first compound 0.3 µM) 1.63%; (second compound 0.003 µM, first compound 0.949 µM) 1.45%; (second compound 0.003 µM, first compound 3 µM) 1.47%. Also, the viability, T/C by setting is: (second compound 0.00949 µM, first compound 0.00949 µM) 1.7%; (second compound 0.00949 µM, first compound 0.03 µM) 1.69%; (second compound 0.00949 µM, first compound 0.0949 µM) 1.68%; (second compound 0.00949 µM, first compound 0.3 µM) 1.41%; (second compound 0.00949 µM, first compound 0.949 µM) 1.63%; (second compound 0.00949 µM, first compound 3 µM) 1.37%. In addition, the viability, T/C runs as follows: (second compound 0.03 µM, first compound 0.00949 µM) 1.69%; (second compound 0.03 µM, first compound 0.03 µM) 1.49%; (second compound 0.03 µM, first compound 0.0949 µM) 1.7%; (second compound 0.03 µM, first compound 0.3 µM) 1.53%; (second compound 0.03 µM, first compound 0.949 µM) 1.32%; (second compound 0.03 µM, first compound 3 µM) 1.28%. For the same compound, the viability, T/C was 1.59% (second compound 0.0949 µM, first compound 0.00949 µM); 1.89% (second compound 0.0949 µM, first compound 0.03 µM); 1.72% (second compound 0.0949 µM, first compound 0.0949 µM); 1.66% (second compound 0.0949 µM, first compound 0.3 µM); 1.34% (second compound 0.0949 µM, first compound 0.949 µM); 1.13% (second compound 0.0949 µM, first compound 3 µM). Moreover, the viability, T/C reads like this: (second compound 0.3 µM, first compound 0.00949 µM) 1.71%; (second compound 0.3 µM, first compound 0.03 µM) 1.64%; (second compound 0.3 µM, first compound 0.0949 µM) 1.52%; (second compound 0.3 µM, first compound 0.3 µM) 1.37%; (second compound 0.3 µM, first compound 0.949 µM) 1.3%; (second compound 0.3 µM, first compound 3 µM) 1.04%.
Turning to `[2H]c1nc(C)nc([2H])c1-c1cc(NC[C@@H](C)c2cccc3c(C(=O)NC)ccnc23)ncn1`, the viability, T/C is 107% and 105% and 96.2% (compound 0.0316 µM); 105% and 104% and 102% (compound 0.1 µM); 105% (2×) and 102% (compound 0.316 µM); 105% and 99% and 98.5% (compound 1 µM); 104% (2×) and 96.3% (compound 3.16 µM); 100% and 95.5% and 101% (compound 10 µM). For the same compound, for the setting “curve of compound”, the concentration for half-maximal inhibition (IC50) was greater than 10000 nM.
As to `CNCc1ccc(-c2cc(-c3nc(-c4ccc(S(=O)(=O)C(C)C)cc4)cnc3N)on2)cc1`, the viability, T/C was 101% and 100% and 109% (compound 0.00949 µM); 101% and 99.2% and 99% (compound 0.03 µM); 72.5% and 86.8% and 89.3% (compound 0.0949 µM); 3.37% and 4.34% and 3.43% (compound 0.3 µM); 0.29% and 0.76% and 0.36% (compound 0.949 µM); 0.18% and 0.19% (2×) (compound 3 µM). For the setting “curve of compound”, the IC50 is 138 nM and 159 nM and 161 nM.
